Legend:
[1] = tested on: 3D skin models (skin equivalents); assay: 3D skin models (skin equivalents) from senescent NHDFs, histology and immunohistochemistry; format: cell-based, human; conditions: BX-795 100 nM, FIGS. 10A-10B
Description: (§1) 3D skin models (skin equivalents) were prepared from young NHDFs (PDL 12) or senescent NHDFs induced into senescence by doxorubicin and IGF-1 or repeated plating (replicative senescence, PDL 57) and were exposed to DMSO or BX795. The treatment concentrations are as follows: doxorubicin ([…]), IGF-1 (100 ng/mL), BX-795 (100 nM).
The indicated proteins were detected by immunohistochemistry. The results are from three representative experiments. Scale bar = 50 µm.
Paraffin samples were dewaxed in xylene and rehydrated through a descending ethanol to water series (3 minutes per solution). […] The sections were then incubated with water/1% H2O2 for 30 minutes to block endogenous peroxidase, rinsed with water and PBS/0.05% Tween 20 for 5 minutes, and incubated with PBS/10% goat serum (Dako, Glostrup, Denmark) for 20 minutes before exposure to the following antibodies overnight at 4 °C; Primary antibodies are: anti-KRT 10 (Biolegend, San Diego, CA), anti-FLG (Abcam), anti-MMP-1(Abcam) and anti-Ki67 (Abcam). […]
Finally, the sections were dehydrated in graded ethanol, cleared in xylene and mounted in Cytoseal 60 (Thermo Scientific, Waltham, MA). […] Tissue sections were incubated with COL17A1 (Abcam) and laminin-5 (Santa Cruz Biotechnology) in Dako fluorescence mounting medium (Dako) at 4 °C overnight. […]

[2] = tested on: GRO, GROα, IL-6, IL-8, MCP-1 to 3 and RANTES; assay: Cytokine antibody array of conditioned media of skin equivalents (SASP); format: cell-based, human; conditions: skin equivalents from either type of senescent NHDFs, BX-795 100 nM, versus vehicle-treated; FIGS. 11A-11B
Description: as §1, with “PDK1 inhibition inhibits SASP in skin equivalents. 3D” for “3D”, “57),” for “57)”
Mean ± SD (n = 3), ***P < 0.001 compared to DMSO control senescent cells by one-way analysis of variance.

[3] = tested on: senescence marker SA-beta-Gal; assay: Expression of senescence marker SA-beta gal in senescent skin cells (cellular senescence assay kit); format: cell-based, human; conditions: senescent NHDF (passage 37), 3 µM for 7 days; control 78± 5.2
Description: Normal human dermal fibroblasts (NHDF; Lonza, Switzerland) were cultured in Dulbecco's modified Eagle's medium (DMEM, GIBCO 1210-0038) containing 10% fetal bovine serum, in a 5% CO2 incubator at 37 °C. Cells at passages 6-9 were denoted as young cells, and they were subcultured by 1:5 subculturing until passage 37 to obtain senescent dermal fibroblasts. The senescent skin cells of (1) were treated with DMSO, the compounds repressed by Chemical Formula 1, 2, 3, 4, 5, 6, 7 and 8, kaempferol 3-O-β-rutinoside (Chemical Formula 9) or kaempferol 7-O-β-D-glucopyranoside (Chemical Formula 10) at 3 µM for 7 days. [drawing 30] [drawing 31] On day 8, the cells were washed with PBS and stained with a fixative and a stain provided together with a cellular senescence assay kit (Cell Biolabs, Inc., San Diego, CA, USA) at 37 °C for 16 hours. On the next day, after washing with PBS and applying a 20% glycerol solution, the number of cells stained green was counted and the degree of expression of the senescence marker SA-beta-Gal was evaluated.

[4] = tested on: MMP-1; assay: MMP-1 ELISA assay in UVB-irradiated HDF cells; format: cell-based, human; conditions: UVB 15 mJ/cm^2, 2 µM or 3 µM, 48 hours, compared to Chemical Formulas 5 and 7 or retinoic acid (RA), FIG. 3
Description: HDF cells were seeded onto a 24-well plate at a concentration of 2.5x10^4 cells/well and were culture for 24 hours under a cell culturing condition. Then, the cells were cultured for 48 hours after treating with a test substance diluted in FBS-free DMEM. After washing with Dulbecco's phosphate-buffered saline (DPBS) and irradiating UVB (15 mJ/cm^2), the medium was replaced with the test substance (2 µM or 3 µM) diluted in DMEM and the cells were cultured for 48 hours. Then, the supernatant was recovered and the amount of MMP-1 was measured using a human total MMP-1 ELISA kit (R&D Systems).

[5] = tested on: Human epidermis models (EpiDerm™ EPI-201); assay: Improvement of skin barrier in 3D organotypic skin epidermis (immunostaining of barrier markers); format: cell-based; conditions: old donor epidermis model, 3 µM for 4 days
Description: Human epidermis models (EpiDerm™ EPI-201; […] The human epidermis model derived from the old donor was treated with the kaempferol tetrasaccharide represented by Chemical Formula 1 at 3 µM for 4 days. Paraffin blocks were prepared after fixing with 10% neutral buffered formalin.
After reacting with anti-KRT 10 (Biolegend, San Diego, CA), anti-FLG (Novus Biologicals, Centennial CO, USA), anti-Involucrin and anti-Ki67 (Abcam) antibodies, the expression of the antibodies was analyzed using a microscope. Specifically, the epidermal tissue derived from the young donor (Young) and the epidermal tissue derived from the old donor (Old) were treated with the test substance and then stained with the antibodies described above. The result is shown in FIG. 4, FIGS. 5A-5B and FIGS. 6A-6C. FIGS. 5A-5B and FIGS. 6A-6C show the result of quantifying the result of FIG. 4.

Compound	degree of expression of the senescence marker SA-beta-Gal (number of cells stained green) [3]	effect of inhibiting MMP-1 expression [4]	further results
O=C(NCCCNc1nc(Nc2cccc(NC(=O)N3CCCC3)c2)ncc1I)c1cccs1 [BX795]			epidermal thickness in the skin equivalents ([1]; skin equivalents from senescence-induced NHDFs): preserved epidermal thickness; proliferation marker Ki-67 in the epidermis of the skin equivalents ([1]; skin equivalents from senescent NHDFs): markedly increased; GRO, GROα, IL-6, IL-8, MCP-1 to 3 and RANTES in the conditioned medium [2]: less
C[C@@H]1O[C@@H](OC[C@H]2O[C@@H](Oc3c(-c4ccc(O)cc4)oc4cc(O)cc(O)c4c3=O)[C@H](O[C@@H]3OC[C@@H](O)[C@H](O)[C@H]3O)[C@@H](O)[C@H]2O)[C@H](O)[C@H](O[C@@H]2OC[C@@H](O)[C@H](O)[C@H]2O)[C@H]1O [Chemical Formula 1, kaempferol-3-O-β-D-xylopyranosyl-(1→3)-O-α-L-rhamnopyranosyl-(1→6)-O-β-D-xylopyranosyl-(1→2)-O-β-D-galactopyranoside]	38 ± 10.4	superior effect of inhibiting MMP-1 expression	epidermal thickness ([5]; FIG. 5A): recovered to levels comparable to those of the young epidermal tissue; expression of the regeneration marker (KI67) ([5]; FIG. 5B): recovered to levels comparable to those of the young epidermal tissue; barrier function (KRT10, FLG, INV) ([5]; FIGS. 6A-6C): recovered to levels comparable to those of the young epidermal tissue
C[C@@H]1O[C@@H](OC[C@H]2O[C@@H](Oc3c(-c4ccc(O)cc4)oc4cc(O)cc(O)c4c3=O)[C@H](O[C@@H]3OC[C@@H](O)[C@H](O)[C@H]3O)[C@@H](O)[C@@H]2O)[C@H](O)[C@H](O[C@@H]2OC[C@@H](O)[C@H](O)[C@H]2O)[C@H]1O [Chemical Formula 2, kaempferol-3-O-β-D-xylopyranosyl-(1→3)-O-α-L-rhamnopyranosyl-(1→6)-O-β-D-xylopyranosyl-(1→2)-O-β-D-glucopyranoside]	40 ± 10.4		
C[C@@H]1O[C@@H](OC[C@H]2O[C@@H](Oc3c(-c4ccc(O)cc4)oc4cc(O)cc(O)c4c3=O)[C@H](O[C@@H]3O[C@H](CO)[C@@H](O)[C@H](O)[C@H]3O)[C@@H](O)[C@H]2O)[C@H](O)[C@H](O[C@@H]2OC[C@@H](O)[C@H](O)[C@H]2O)[C@H]1O [Chemical Formula 3, kaempferol-3-O-β-D-xylopyranosyl-(1→3)-O-α-L-rhamnopyranosyl-(1→6)-O-β-D-glucopyranosyl-(1→2)-O-β-D-galactopyranoside]	42 ± 9.7	superior effect of inhibiting MMP-1 expression	
C[C@@H]1O[C@@H](OC[C@H]2O[C@@H](Oc3c(-c4ccc(O)cc4)oc4cc(O)cc(O)c4c3=O)[C@H](O)[C@@H](O)[C@@H]2O)[C@H](O)[C@H](O)[C@H]1O [Kaempferol 3-O-β-rutinoside, kaempferol 3-O-β-rutinoside, reference compound]	81 ± 11.3		
O=c1c(O)c(-c2ccc(O)cc2)oc2cc(O[C@@H]3O[C@H](CO)[C@@H](O)[C@H](O)[C@H]3O)cc(O)c12 [Kaempferol 7-0-β-D-glucopyranoside, kaempferol 7-O-β-D-glucopyranoside, reference compound]	79± 9.9		
O=c1c(O)c(-c2ccc(O)cc2)oc2cc(O)cc(O)c12 [Kaempferol]	80 ± 12.1		
kaempferol-3-O-β-D-xylopyranosyl-(1→3)-O-α-L-rhamnopyranosyl-(1→6)-O-β-D-glucopyranosyl-(1→2)-O-β-D-glucopyranoside [Chemical Formula 4]	37 ± 9.1	superior effect of inhibiting MMP-1 expression	

— EP3967319A1, “COMPOSITION FOR SKIN PROTECTION COMPRISING KAEMPFEROL SACCHARIDES COMPOUNDS” (Amorepacific Corporation, priority 2020, dated 2022)
